The source made the active and inactive calls.
Tests used:
H4 = assay: Luminescence Cell-Based Dose Response HTS to Identify Activators of 5'UTR Stem-Loop Driven Prion Protein mRNA Translation in H4 Neuroglioblastoma Cells. [Related pubchem assays: 1829 (Project Summary), 1814 (Primary HTS)]; assay type: functional; conditions: Homo sapiens
[1] = target: Heat shock protein HSP 90-alpha (Homo sapiens, UniProt P07900); assay: Luminescence-based dose response biochemical high throughput screening assay for inhibitors of the Heat Shock Protein 90 (HSP90). [Related pubchem assays: 1831 (Summary AID.), 1846 (Confirmation screen.), 1789 (Primary screen.)]
[2] = Luminescence Cell-Based Dose Response HTS to Identify Activators of Luciferase Translation or Activity in H4 […] Cells. [Related pubchem assays: 1829 (Project Summary), 1814 (Primary HTS)]; assay type: functional
[3] = Luminescence Cell-Based Dose Confirmation HTS to Identify Activators of 5'UTR Stem-Loop Driven Alpha-Synuclein mRNA Translation in H4 Neuroglioblastoma Cells. [Related pubchem assays: 1829 (Project Summary), 1814 (Primary HTS)]; assay type: functional
[4] = target: Peroxisome proliferator-activated receptor gamma/Nuclear receptor corepressor 2 (Homo sapiens, UniProt P37231+Q9Y618); assay: Counterscreen for NR2E3 inverse agonists: TR-FRET-based biochemical high throughput dose response assay to identify inverse agonists of the interaction between peroxisome proliferator-activated receptor gamma (PPARg) and nuclear receptor co-repressor 2 (NCOR2).; assay type: functional
Chain of Peroxisome proliferator-activated receptor gamma/Nuclear receptor corepressor 2 (P37231 whole entry): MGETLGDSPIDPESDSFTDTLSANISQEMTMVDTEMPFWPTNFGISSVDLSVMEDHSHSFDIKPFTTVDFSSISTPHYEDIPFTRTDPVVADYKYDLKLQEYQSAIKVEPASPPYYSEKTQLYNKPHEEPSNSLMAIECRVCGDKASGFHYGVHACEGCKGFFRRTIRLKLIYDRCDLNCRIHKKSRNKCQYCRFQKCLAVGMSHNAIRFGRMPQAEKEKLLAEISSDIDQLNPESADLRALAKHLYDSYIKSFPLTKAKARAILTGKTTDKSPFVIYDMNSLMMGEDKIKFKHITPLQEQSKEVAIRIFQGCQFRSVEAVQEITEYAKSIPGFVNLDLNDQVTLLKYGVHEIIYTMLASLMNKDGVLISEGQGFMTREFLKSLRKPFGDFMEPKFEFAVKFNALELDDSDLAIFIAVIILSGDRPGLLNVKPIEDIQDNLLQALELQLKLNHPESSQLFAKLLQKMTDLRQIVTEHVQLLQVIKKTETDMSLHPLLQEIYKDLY
Chain of Peroxisome proliferator-activated receptor gamma/Nuclear receptor corepressor 2 (Q9Y618 whole entry): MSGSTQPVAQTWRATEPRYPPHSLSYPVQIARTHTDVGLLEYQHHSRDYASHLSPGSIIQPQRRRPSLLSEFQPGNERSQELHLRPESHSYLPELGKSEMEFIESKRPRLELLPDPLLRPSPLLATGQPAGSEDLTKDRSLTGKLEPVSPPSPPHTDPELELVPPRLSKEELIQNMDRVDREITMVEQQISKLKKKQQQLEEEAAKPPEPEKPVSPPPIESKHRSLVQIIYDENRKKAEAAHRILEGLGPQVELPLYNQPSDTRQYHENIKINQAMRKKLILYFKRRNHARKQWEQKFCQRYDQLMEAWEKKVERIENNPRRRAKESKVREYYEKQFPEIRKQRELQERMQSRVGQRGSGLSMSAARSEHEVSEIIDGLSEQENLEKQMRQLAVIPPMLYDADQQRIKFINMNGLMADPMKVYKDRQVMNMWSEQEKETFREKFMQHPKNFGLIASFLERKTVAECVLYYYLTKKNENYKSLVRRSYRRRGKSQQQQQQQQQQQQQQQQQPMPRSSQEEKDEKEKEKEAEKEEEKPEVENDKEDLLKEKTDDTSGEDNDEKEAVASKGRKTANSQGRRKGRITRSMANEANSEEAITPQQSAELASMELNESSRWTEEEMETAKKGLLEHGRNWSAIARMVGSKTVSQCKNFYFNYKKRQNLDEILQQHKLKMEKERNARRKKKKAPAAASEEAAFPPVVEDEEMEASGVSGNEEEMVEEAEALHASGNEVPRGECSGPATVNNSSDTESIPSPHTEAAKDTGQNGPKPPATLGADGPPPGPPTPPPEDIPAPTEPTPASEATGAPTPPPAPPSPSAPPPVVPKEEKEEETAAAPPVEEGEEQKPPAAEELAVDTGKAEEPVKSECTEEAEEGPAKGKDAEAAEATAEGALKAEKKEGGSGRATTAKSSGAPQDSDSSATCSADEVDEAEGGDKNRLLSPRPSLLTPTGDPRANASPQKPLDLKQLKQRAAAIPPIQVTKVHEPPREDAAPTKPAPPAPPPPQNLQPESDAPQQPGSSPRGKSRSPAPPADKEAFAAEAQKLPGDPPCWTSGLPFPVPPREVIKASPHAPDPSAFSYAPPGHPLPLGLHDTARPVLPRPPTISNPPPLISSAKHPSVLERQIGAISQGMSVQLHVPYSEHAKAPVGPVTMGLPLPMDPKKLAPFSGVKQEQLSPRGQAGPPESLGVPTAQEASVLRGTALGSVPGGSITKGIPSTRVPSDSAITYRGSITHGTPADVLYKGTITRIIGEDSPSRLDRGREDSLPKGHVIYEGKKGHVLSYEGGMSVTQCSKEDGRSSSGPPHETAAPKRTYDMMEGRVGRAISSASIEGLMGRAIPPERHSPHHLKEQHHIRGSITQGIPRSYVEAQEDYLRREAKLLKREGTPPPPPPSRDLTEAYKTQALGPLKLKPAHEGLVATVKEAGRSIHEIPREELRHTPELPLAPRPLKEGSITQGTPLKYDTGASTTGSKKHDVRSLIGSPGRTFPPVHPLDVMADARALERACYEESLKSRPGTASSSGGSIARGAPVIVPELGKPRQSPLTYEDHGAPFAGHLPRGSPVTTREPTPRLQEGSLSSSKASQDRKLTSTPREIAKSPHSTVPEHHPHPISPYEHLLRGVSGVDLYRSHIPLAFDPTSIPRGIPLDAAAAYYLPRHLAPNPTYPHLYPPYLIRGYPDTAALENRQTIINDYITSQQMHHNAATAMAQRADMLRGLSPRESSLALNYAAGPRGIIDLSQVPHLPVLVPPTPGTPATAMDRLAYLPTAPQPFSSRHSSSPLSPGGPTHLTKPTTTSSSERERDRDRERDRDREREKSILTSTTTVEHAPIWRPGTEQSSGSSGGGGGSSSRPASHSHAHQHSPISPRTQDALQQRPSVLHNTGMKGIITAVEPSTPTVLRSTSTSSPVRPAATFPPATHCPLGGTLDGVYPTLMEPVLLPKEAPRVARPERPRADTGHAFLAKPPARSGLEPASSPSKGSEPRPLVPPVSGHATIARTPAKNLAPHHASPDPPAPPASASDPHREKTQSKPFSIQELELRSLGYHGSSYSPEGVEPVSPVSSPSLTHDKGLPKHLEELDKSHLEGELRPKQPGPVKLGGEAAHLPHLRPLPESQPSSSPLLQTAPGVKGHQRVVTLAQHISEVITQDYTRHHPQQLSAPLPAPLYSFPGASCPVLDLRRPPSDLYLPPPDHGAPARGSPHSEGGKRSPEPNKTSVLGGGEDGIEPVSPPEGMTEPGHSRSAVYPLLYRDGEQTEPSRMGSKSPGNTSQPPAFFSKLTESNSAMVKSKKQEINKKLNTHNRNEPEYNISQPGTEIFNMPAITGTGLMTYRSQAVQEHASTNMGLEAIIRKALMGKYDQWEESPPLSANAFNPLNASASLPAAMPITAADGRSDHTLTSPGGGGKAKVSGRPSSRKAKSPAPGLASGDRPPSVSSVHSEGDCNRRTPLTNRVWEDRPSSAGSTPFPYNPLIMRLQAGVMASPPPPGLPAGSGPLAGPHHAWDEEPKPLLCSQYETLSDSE

[5] = target: Photoreceptor-specific nuclear receptor (Homo sapiens, UniProt Q9Y5X4); assay: ligands suppressing NR2E3 nuclear receptor activity – biochemical, TR-FRET, dose response (AID 463256); assay type: functional
Chain of Photoreceptor-specific nuclear receptor (Q9Y5X4 whole entry): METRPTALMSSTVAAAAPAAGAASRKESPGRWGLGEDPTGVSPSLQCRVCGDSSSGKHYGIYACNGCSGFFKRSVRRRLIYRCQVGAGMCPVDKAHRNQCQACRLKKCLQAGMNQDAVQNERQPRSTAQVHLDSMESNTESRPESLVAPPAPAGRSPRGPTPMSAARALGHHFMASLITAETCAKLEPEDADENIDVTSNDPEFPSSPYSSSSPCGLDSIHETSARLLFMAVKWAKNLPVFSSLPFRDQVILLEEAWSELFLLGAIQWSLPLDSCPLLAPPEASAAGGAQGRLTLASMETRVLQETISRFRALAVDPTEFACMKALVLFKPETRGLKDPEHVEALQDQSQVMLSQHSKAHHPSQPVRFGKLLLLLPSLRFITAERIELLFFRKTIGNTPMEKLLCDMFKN

[6] = target: Aryl hydrocarbon receptor (Homo sapiens, UniProt P35869); assay: Luminescence-based cell-based high throughput dose response assay for activators of the Aryl Hydrocarbon Receptor (AHR). [Related pubchem assays: 2796 (Primary screen (AHR activators in singlicate)), 2845 (Confirmation screen (AHR activators in triplicate)), 434939 (Counterscreen (PXR activators in triplicate)), 2804 (Summary (AHR activators))]; assay type: ADME
[7] = target: Mitogen-activated protein kinase 10 (Homo sapiens, UniProt P53779); assay: Dose response biochemical screening assay for inhibitors of c-Jun N-Terminal Kinase 3 (JNK3). [Related pubchem assays: 746 ]
cells = assay type: functional, cell-based; conditions: INS-1E
[8] = IC50 of insulin release inhibition, rat insulinoma INS-1E line, 5 mM glucose, cell-based (AID 1117331); assay type: functional
Genome polyprotein = Genome polyprotein (Hepatitis C virus, UniProt Q2Q167); assay: disruption of hepatitis C core self-association – biochemical, TR-FRET, dose response (AID 2159); parameters: species or system Hepacivirus hominis;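 note: blocks dimerization of HCV core protein measured by TR-FRET between tagged core106 pairs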
Chain of Genome polyprotein (Q2Q167 whole entry): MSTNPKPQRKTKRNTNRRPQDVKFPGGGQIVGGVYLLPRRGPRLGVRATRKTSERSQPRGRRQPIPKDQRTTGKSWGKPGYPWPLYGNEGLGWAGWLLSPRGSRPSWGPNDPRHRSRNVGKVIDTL

[9] = target: Induced myeloid leukemia cell differentiation protein Mcl-1 (Homo sapiens, UniProt Q07820); assay: blockers of MCL1 binding to BIM peptide – biochemical, fluorescence polarization, BIM-BH3 peptide, 1536-well, dose response (AID 2217)
Chain of Induced myeloid leukemia cell differentiation protein Mcl-1 (Q07820 whole entry): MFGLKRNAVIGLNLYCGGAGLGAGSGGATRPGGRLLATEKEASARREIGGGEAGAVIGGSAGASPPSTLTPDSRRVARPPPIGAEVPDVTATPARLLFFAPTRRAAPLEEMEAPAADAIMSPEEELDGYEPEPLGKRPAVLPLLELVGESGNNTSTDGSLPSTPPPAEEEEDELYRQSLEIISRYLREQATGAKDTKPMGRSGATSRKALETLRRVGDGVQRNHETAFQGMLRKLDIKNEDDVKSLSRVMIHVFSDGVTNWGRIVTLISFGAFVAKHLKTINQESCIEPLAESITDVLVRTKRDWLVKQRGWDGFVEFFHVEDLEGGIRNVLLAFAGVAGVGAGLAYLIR

Bcl-2-like protein 1 = Bcl-2-like protein 1 (Homo sapiens, UniProt Q07817); assay: blockers of BCLXL peptide binding – biochemical, fluorescence polarization, 1536-well, selectivity assay for MCL1 inhibitor project, dose response (AID 2218)
Chain of Bcl-2-like protein 1 (Q07817 whole entry): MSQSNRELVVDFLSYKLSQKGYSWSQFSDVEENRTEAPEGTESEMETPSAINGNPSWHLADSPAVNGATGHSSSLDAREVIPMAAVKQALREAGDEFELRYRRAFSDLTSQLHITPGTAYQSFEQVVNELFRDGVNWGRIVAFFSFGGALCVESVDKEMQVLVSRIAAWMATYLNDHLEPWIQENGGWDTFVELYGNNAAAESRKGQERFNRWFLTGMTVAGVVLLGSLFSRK

[10] = target: T1, Zinc finger protein mex-5 (Caenorhabditis elegans, UniProt Q9XUB2); assay: potency of MEX-5 RNA-binding blockers – biochemical, C. elegans, fluorescence polarization, dose response (AID 1960)
T1 sequence (Q9XUB2 whole entry): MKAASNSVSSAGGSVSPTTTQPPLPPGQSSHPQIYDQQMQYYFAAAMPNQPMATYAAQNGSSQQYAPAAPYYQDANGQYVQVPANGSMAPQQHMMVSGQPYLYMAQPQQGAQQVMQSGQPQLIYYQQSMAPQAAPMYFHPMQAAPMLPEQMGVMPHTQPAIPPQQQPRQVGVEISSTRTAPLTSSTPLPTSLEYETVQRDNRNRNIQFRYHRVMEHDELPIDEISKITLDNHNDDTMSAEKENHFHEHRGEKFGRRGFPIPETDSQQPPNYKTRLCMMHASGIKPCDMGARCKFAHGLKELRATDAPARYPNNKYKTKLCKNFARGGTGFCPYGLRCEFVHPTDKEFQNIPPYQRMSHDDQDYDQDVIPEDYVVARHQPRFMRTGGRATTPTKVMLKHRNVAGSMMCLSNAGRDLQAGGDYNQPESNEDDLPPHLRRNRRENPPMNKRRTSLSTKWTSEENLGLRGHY

Aspartyl aminopeptidase = Aspartyl aminopeptidase (Plasmodium falciparum 3D7, UniProt Q8I2J3); assay: Counterscreen for inhibitors of M1 and M17 aminopeptidases: QFRET-based biochemical high throughput dose response assay for inhibitors of the Plasmodium falciparum M18 Aspartyl Aminopeptidase (PFM18AAP). [Related PubChem assays: 1619 (Screening assay (M17LAP inhibitors).), 1445 (Screening assay (M1AAP inhibitors).)]
Chain of Aspartyl aminopeptidase (Q8I2J3 whole entry): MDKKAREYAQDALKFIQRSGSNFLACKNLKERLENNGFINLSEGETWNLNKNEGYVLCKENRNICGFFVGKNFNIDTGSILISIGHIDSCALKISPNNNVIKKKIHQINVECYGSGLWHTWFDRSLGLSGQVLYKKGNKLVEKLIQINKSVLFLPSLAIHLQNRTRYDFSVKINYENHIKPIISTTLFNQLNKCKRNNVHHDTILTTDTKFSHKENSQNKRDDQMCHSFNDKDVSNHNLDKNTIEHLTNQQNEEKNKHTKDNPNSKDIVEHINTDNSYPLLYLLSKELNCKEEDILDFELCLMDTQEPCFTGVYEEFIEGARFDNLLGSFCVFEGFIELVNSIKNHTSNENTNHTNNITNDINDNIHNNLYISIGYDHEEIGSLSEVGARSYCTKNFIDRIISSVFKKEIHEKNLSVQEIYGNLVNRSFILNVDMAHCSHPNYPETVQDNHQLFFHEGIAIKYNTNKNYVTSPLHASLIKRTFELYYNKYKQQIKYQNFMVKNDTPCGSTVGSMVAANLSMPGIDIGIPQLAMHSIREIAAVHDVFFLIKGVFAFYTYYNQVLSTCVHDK

Procathepsin L = Procathepsin L (Homo sapiens, UniProt P07711); assay: CTSL1 protease inhibition – biochemical, QFRET, 1536-well, counter-screen for M1/M17 aminopeptidase inhibitor project, dose response (AID 2214)
Chain of Procathepsin L (P07711 whole entry, the tested form may be a part): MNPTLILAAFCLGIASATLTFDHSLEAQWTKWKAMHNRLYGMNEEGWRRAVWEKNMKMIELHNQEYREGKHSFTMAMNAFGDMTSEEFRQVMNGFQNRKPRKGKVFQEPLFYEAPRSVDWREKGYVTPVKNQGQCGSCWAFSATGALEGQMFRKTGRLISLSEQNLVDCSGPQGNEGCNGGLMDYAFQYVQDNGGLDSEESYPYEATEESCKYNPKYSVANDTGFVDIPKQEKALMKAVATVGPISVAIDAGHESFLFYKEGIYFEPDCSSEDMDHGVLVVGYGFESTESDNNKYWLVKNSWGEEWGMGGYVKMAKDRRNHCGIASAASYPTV

[11] = target: T2, RNA-binding protein pos-1 (Caenorhabditis elegans, UniProt G5EF15); assay: disruptors of C. elegans POS-1 RNA interaction – biochemical, fluorescence polarization, dose response (AID 1964);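 note: purified POS-1 fused to maltose binding protein made in E. coli; potency of compounds blocking POS-1 binding to fluorescent RNA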
T2 sequence (G5EF15 whole entry): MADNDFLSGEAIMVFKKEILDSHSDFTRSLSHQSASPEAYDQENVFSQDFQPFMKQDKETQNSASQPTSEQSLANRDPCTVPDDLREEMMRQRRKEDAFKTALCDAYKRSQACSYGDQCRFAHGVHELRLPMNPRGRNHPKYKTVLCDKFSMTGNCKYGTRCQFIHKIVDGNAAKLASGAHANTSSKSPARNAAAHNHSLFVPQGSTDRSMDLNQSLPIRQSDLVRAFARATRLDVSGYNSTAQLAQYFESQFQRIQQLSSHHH

Aminopeptidase N = target: T3, Aminopeptidase N (Plasmodium falciparum FcB1/Columbia, UniProt O96935); assay: malaria alanyl aminopeptidase activity blockers – biochemical, fluorogenic H-Leu-NHMec substrate, 1536-well (AID 1445); parameters: species or system Plasmodium falciparum 3D7, 3D7
T3 sequence (O96935 whole entry): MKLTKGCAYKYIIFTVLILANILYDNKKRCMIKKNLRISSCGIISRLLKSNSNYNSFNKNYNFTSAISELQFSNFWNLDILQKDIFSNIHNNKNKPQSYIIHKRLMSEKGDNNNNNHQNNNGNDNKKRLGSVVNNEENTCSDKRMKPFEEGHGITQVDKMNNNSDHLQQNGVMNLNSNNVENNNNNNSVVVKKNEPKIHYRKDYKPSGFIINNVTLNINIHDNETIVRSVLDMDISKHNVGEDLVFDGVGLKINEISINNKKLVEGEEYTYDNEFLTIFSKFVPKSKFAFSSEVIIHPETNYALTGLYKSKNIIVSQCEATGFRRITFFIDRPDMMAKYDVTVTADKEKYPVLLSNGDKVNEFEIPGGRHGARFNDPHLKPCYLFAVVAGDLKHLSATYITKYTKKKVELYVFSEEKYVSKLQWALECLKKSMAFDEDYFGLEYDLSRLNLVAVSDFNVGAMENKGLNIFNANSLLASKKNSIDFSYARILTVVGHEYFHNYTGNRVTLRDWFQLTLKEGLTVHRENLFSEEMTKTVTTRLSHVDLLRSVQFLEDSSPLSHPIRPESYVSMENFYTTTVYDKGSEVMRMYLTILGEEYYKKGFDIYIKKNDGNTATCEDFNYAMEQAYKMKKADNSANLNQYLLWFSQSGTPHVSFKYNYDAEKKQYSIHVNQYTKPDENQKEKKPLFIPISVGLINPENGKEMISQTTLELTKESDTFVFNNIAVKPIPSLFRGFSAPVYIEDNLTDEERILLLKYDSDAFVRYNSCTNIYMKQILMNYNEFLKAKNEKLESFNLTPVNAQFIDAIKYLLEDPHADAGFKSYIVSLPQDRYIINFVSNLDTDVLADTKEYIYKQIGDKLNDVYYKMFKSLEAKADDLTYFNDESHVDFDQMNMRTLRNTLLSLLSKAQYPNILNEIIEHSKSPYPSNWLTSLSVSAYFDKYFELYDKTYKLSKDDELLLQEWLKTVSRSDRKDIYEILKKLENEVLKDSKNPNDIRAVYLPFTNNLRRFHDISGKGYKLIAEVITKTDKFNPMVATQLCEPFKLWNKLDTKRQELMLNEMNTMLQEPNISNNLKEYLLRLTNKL

What does the source list for `Cc1cc(NO)nc(-c2ccc(Br)cc2)n1`?
EC50 (H4): 40.2 µM (active); IC50 [1]: 0.728 µM (active); EC50 [2]: 22.8 µM (active); EC50 [3]: 0.405 µM (active)

With `CCN(CC)S(=O)(=O)c1ccc(OC)c(NC(=O)COc2ccc3c(C)cc(=O)oc3c2)c1` as the molecule, how does the IC50 [4] read?
The IC50 was 2.14 µM (active).

And the IC50 [5]?
Its IC50 is 2.35 µM (active).

With `COc1cc2nc(-c3cccc(F)c3)cc(O)c2cc1OC` as the molecule, how does the EC50 [6] read?
The EC50 was 5.44 µM (active).

With `CCOC(=O)c1ccc2[nH]c3c(c2c1)CCCCC3=O` as the molecule, how does the IC50 [7] read?
The IC50 was > 93.1 µM (not active).

With `Nc1c2c(nc3c1CCC3)CCCC2` as the molecule, how does the IC50 (cells) read?
Its IC50 is > 33.3 µM (inactive).

And the IC50 [8]?
Its IC50 is 11.7 µM (inactive).

With `COc1ccc(NC(=O)CN(C)C(=O)c2cc3c(s2)CCC3)cc1` as the molecule, how does the IC50 (Genome polyprotein) read?
Its IC50 is 42.6 µM (not active).

And the IC50 [9]?
The IC50 was 7.31 µM (active).

And the IC50 (Bcl-2-like protein 1)?
The IC50 was > 109 µM (not active).

Which EC50 [10] does the source give for `O=C(NCc1cccs1)C1CCN(S(=O)(=O)c2ccc(Br)s2)CC1` here?
The EC50 was > 300 µM (not active).

And the IC50 (Aspartyl aminopeptidase)?
The IC50 was > 73.5 µM (not active).

And the IC50 (Procathepsin L)?
The IC50 was > 59.6 µM (not active).

What about the EC50 [11] of the same molecule?
Its EC50 is > 300 µM (not active).

What about the IC50 (Aminopeptidase N) of the same molecule?
The IC50 was 4.67 µM (active).
